Data set [1] concerns A2780, human ovarian carcinoma cells. In words: Proliferation assay, A2780 (Method 3). The conditions noted are these: A2780, 4 days, crystal violet, read-out: Inhibition of A2780 cell proliferation IC50. Format: cell-based. The method, boiled down: (§1)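 Cells grew 24 h, then were exposed to compound at 0.001–10 μM (0.5% final DMSO) for 4 days. Proliferation was read by crystal violet staining after glutaraldehyde fixation, with absorbance at 595 nm. Values were normalized to a zero-point plate (0%) and untreated cells (100%).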

Data set [2] relates to MOLM-13 human acute myeloid leukemia cells. In words: Proliferation assay, MOLM-13 (Cell Titre-Glo, Method 3). Format: cell-based. Conditions: MOLM-13, 72-hour exposure, read-out: Inhibition of MOLM-13 cell proliferation IC50. As for the experimental part: Non-adherent MOLM-13 human acute myeloid leukemia cells (DSMZ ACC 554) were seeded at a density of 5,000 cells/well in a 96-well multititer plate in 100 μL of growth medium supplemented 10% fetal calf serum. After 24 hours, cell viability of one plate (zero-point plate) was determined with the Cell Titre-Glo Luminescent Cell Viability Assay (Promega), while 50 μL of test compound containing medium was added to the wells of the other plates (final concentrations in the range of 0.001-10 μM and DMSO controls; the final concentration of the solvent dimethyl sulfoxide was 0.5%). Cell viability was assessed after 72-hour exposure with the Cell Titre-Glo Luminescent Cell Viability Assay (Promega).

Data set [3] deals with HeLa, human cervical tumour cells. In words: Proliferation assay, HeLa (Method 3). Format: cell-based. Conditions: 4 days, crystal violet, read-out: Inhibition of HeLa cell proliferation IC50. The method, boiled down:
as §1

Data set [4] can be described thus: In vitro metabolic stability in rat hepatocytes (Method 5). The conditions noted are these: 1 μM test compound. Format: in vitro ADME, Han Wistar rat. The procedure:
5. Investigation of In Vitro Metabolic Stability in Rat Hepatocytes
Hepatocytes from Han Wistar rats were isolated via a 2-step perfusion method. After perfusion, the liver was carefully removed from the rat: the liver capsule was opened and the hepatocytes were gently shaken out into a Petri dish with ice-cold Williams medium E (purchased from Sigma Aldrich Life Science, St Louis, Mo.). The resulting cell suspension was filtered through sterile gaze in 50 ml falcon tubes and centrifuged at 50×g for 3 min at room temperature. The cell pellet was resuspended in 30 ml WME and centrifuged through a Percoll® gradient for 2 times at 100×g. The hepatocytes were washed again with Williams' medium E (WMA) and resuspended in medium containing 5% Fetal calf serum (FCS, purchased from Invitrogen, Auckland, NZ). Cell viability was determined by trypan blue exclusion.
For the metabolic stability assay liver cells were distributed in WME containing 5% FCS to glass vials at a density of 1.0×10^6 vital cells/ml. The test compound was added to a final concentration of 1 μM. During incubation, the hepatocyte suspensions were continuously shaken and aliquots were taken at 2, 8, 16, 30, 45 and 90 min, to which equal volumes of cold acetonitrile were immediately added. Samples were frozen at −20° C. over night, after subsequently centrifuged for 15 minutes at 3000 rpm and the supernatant was analyzed with an Agilent 1200 HPLC-system with LCMS/MS detection.
The half-life of a test compound was determined from the concentration-time plot. From the half-life the intrinsic clearances were calculated. Together with the additional parameters liver blood flow, amount of liver cells in vivo and in vitro.

Data set [5] deals with T1, CDK9/CycT1 (Homo sapiens (Human), UniProt P50750). In words: CDK9/CycT1 kinase assay (Method 1a). Format: biochemical. Conditions: for Selectivity CDK9/CDK2: derived from Methods 1a. and 2.; for IC50: 10 μM ATP.
The target of data set [6] is T1, CDK9/CycT1. The data set can be described thus: CDK9/CycT1 high ATP kinase assay (Method 1b). Format: biochemical. Conditions: 2 mM ATP. The procedure:
1b. CDK9/CycT1 High ATP Kinase Assay
CDK9/CycT1-inhibitory activity of compounds of the present invention at a high ATP concentration after preincubation of enzyme and test compounds was quantified employing the CDK9/CycT1 TR-FRET assay as described in the following paragraphs.
Recombinant full-length His-tagged human CDK9 and CycT1, expressed in insect cells and purified by Ni-NTA affinity chromatography, were purchase from Invitrogen (Cat. No PV4131). As substrate for the kinase reaction biotinylated peptide biotin-Ttds-[…] (C-terminus in amid form) was used which can be purchased e.g. form the company JERINI peptide technologies (Berlin, Germany).
For the assay 50 nl of a 100 fold concentrated solution of the test compound in DMSO was pipetted into a black low volume 384 well microtiter plate (Greiner Bio-One, Frickenhausen, Germany), 2 μl of a solution of CDK9/CycT1 in aqueous assay buffer [50 mM Tris/HCl pH 8.0, 10 mM MgCl2, 1.0 mM dithiothreitol, 0.1 mM sodium ortho-vanadate, 0.01% (v/v) Nonidet-P40 (Sigma)] were added and the mixture was incubated for 15 min at 22° C. to allow pre-binding of the test compounds to the enzyme before the start of the kinase reaction. […] The concentration of CDK9/CycT1 was adjusted depending of the activity of the enzyme lot and was chosen appropriate to have the assay in the linear range, typical concentrations were in the range of 0.5 μg/ml.
The resulting mixture was incubated 1 h at 22° C. to allow the formation of complex between the phosphorylated biotinylated peptide and the detection reagents. Subsequently the amount of phosphorylated substrate was evaluated by measurement of the resonance energy transfer from the Eu-chelate to the streptavidine-XL. Therefore, the fluorescence emissions at 620 nm and 665 nm after excitation at 350 nm was measured in a HTRF reader, e.g. a Rubystar (BMG Labtechnologies, Offenburg, Germany) or a Viewlux (Perkin-Elmer). The ratio of the emissions at 665 nm and at 622 nm was taken as the measure for the amount of phosphorylated substrate.

Data set [7] concerns Caco-2, human colorectal carcinoma cells. In words: Proliferation assay, Caco-2 (Method 3). Format: cell-based. Conditions: Caco-2, 4 days, crystal violet, read-out: Inhibition of Caco-2 cell proliferation IC50. As for the experimental part: (§2) After 24 hours, the cells of one plate (zero-point plate) were stained with crystal violet (see below), while the medium of the other plates was replaced by fresh culture medium (200 μl), to which the test substances were added in various concentrations (0 μM, as well as in the range of 0.001-10 μM; the final concentration of the solvent dimethyl sulfoxide was 0.5%). The cells were incubated for 4 days in the presence of test substances. Cell proliferation was determined by staining the cells with crystal violet: the cells were fixed by adding 20 μl/measuring point of an 11% glutaric aldehyde solution for 15 minutes at room temperature. After three washing cycles of the fixed cells with water, the plates were dried at room temperature. The cells were stained by adding 100 μl/measuring point of a 0.1% crystal violet solution (pH 3.0). After three washing cycles of the stained cells with water, the plates were dried at room temperature. The dye was dissolved by adding 100 μl/measuring point of a 10% acetic acid solution. The extinction was determined by photometry at a wavelength of 595 nm. The change of cell number, in percent, was calculated by normalization of the measured values to the extinction values of the zero-point plate (=0%) and the extinction of the untreated (0 μm) cells (=100%).

The test system of data set [8] is DU 145, hormone-independent human prostate carcinoma cells. The data set can be described thus: Proliferation assay, DU 145 (Method 3). Format: cell-based. Conditions: DU145, 4 days, crystal violet, read-out: Inhibition of DU145 cell proliferation IC50. As for the experimental part:
as §2

In data set [9] the test system is B16F10, mouse melanoma cells. In words: Proliferation assay, B16F10 (Method 3). Format: cell-based. Conditions: B16F10, 4 days, crystal violet, read-out: Inhibition of B16F10 cell proliferation IC50. As for the experimental part: as §2
In data set [10] the test system is HeLa-MaTu-ADR, multidrug-resistant human cervical carcinoma cells. The data set can be described thus: Proliferation assay, HeLa-MaTu-ADR (Method 3). Format: cell-based. Conditions: 4 days, crystal violet, read-out: Inhibition of HeLa-MaTu-ADR cell proliferation IC50. As for the experimental part: as §2
Data set [11] concerns NCI-H460, human non-small cell lung carcinoma cells. The data set can be described thus: Proliferation assay, NCI-H460 (Method 3). Format: cell-based. The conditions noted are these: NCI-H460, 4 days, crystal violet, read-out: Inhibition of H460 cell proliferation IC50. The procedure:
as §2

A further data set has as its target CDK2/CycE (Homo sapiens (Human), UniProt P24941). In words: CDK2/CycE kinase assay (Method 2). Format: biochemical. Conditions: 10 μM ATP.

SMILES strings stand for the structures. Where two headings read alike, the source gives them in different places.

T1 sequence (P50750 whole entry): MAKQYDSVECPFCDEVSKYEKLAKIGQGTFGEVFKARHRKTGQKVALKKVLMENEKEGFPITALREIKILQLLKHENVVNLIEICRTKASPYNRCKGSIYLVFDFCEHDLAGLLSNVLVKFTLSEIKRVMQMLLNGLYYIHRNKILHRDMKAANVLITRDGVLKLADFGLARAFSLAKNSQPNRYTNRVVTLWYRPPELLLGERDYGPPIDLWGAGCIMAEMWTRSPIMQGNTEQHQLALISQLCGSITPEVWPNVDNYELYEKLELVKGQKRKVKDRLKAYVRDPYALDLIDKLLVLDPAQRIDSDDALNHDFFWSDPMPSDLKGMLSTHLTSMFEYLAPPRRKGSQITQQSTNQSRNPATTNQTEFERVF
T1 sequence (O60563 whole entry partner): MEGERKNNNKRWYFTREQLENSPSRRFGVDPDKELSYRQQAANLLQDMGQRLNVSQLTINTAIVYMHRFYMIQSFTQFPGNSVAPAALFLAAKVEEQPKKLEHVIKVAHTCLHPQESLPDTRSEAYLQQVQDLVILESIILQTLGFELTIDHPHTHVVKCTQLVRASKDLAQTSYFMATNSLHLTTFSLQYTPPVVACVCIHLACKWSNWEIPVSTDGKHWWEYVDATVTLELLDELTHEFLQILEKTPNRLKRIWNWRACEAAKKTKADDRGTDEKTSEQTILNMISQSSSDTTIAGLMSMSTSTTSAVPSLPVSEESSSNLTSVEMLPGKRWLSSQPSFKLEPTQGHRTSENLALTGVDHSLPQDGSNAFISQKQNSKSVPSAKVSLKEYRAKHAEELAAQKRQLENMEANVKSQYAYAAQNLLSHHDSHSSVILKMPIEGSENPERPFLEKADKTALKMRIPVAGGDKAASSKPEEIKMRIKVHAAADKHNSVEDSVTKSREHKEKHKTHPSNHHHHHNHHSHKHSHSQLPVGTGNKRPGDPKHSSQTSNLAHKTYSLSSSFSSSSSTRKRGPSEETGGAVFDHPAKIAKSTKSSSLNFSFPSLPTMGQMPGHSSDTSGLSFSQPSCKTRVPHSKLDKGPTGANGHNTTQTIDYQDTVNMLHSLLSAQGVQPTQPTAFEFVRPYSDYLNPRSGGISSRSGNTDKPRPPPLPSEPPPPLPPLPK

For `CS(=N)(=O)Cc1cc(Nc2ncc(F)c(-c3ccc(F)cc3F)n2)cc(C(F)(F)F)c1` (single isomer, unassigned) [Example 5, 4-(2,4-Difluorophenyl)-5-fluoro-N-{3-[(S-methylsulfonimidoyl)methyl]-5-(trifluoromethyl)phenyl}pyrimidin-2-amine], the IC50 in data set [1] came out at 95 nM; in data set [2] (Homo sapiens, MOLM-13, 72 h), 316 nM; in [3] (Homo sapiens, 96 h) it was 840 nM. The “maximal calculated oral bioavailability (Fmax) based on stability data in rat Hepatocytes” value (from here on “maximal calculated oral bioavailability”) in data set [4] was 77%. Further, the “Selectivity CDK9/CDK2” value at CDK9/CycT1 [5] came out at 72.
`CS(=N)(=O)Cc1cc(Nc2ncc(F)c(-c3ccc(F)cc3F)n2)cc(C(F)(F)F)c1` (single isomer, unassigned) [Example 6, 4-(2,4-Difluorophenyl)-5-fluoro-N-{3-[(S-methylsulfonimidoyl)methyl]-5-(trifluoromethyl)phenyl}pyrimidin-2-amine]: the IC50 in [1] was determined as 300 nM; in data set [2], 374 nM; in data set [3], 950 nM. Besides, the “maximal calculated oral bioavailability” value in [4] is 71%. Also, at CDK9/CycT1 [5], the “Selectivity CDK9/CDK2” value amounted to 50.
For `CS(=O)(Cc1cc(Nc2ncc(F)c(-c3ccc(F)cc3F)n2)cc(S(F)(F)(F)(F)F)c1)=NC(N)=O` (single isomer, unassigned) [Example 34, 1-{[3-{[4-(2,4-Difluorophenyl)-5-fluoropyrimidin-2-yl]amino}-5-(pentafluoro-λ^6-sulfanyl)benzyl](methyl)oxido-λ^6-sulfanylidene}urea], the IC50 was 11 nM against CDK9/CycT1 [6]; 202 nM in data set [7]; 142 nM in data set [8]; 99 nM in [1]; 39 nM in data set [2]; 172 nM in data set [3]. Also, the IC50 in [9] is 323 nM; in [10] it was 134 nM; against CDK9/CycT1 [5], 4 nM; in [11] it was 317 nM. In data set [4], the “maximal calculated oral bioavailability” value was 90%.
For the compound `COc1cc(CS(C)(=O)=NC#N)cc(Nc2ncc(F)c(-c3ccc(F)cc3F)n2)c1` (racemic) [Example 20, (rac)-[(3-{[4-(2,4-Difluorophenyl)-5-fluoropyrimidin-2-yl]amino}-5-methoxybenzyl)(methyl)oxido-λ^6-sulfanylidene]cyanamide], the IC50 came to 344 nM in data set [7] (Homo sapiens, Caco-2, 96 h); 340 nM in [8] (Homo sapiens, DU-145, 96 h); 230 nM against CDK2/CycE; 320 nM in data set [3] (Homo sapiens, 96 h); 321 nM in data set [9] (Mus musculus, B16-F10, 96 h); 330 nM in [10] (Homo sapiens, 96 h). Moreover, in [11] (Homo sapiens, NCI-H460, 96 h), the IC50 came out at 384 nM.
Take `CS(=N)(=O)Cc1cc(Br)cc(Nc2ncc(F)c(-c3ccc(F)cc3F)n2)c1` (single isomer, unassigned) [Example 42, N-{3-Bromo-5-[(S-methylsulfonimidoyl)methyl]phenyl}-4-(2,4-difluorophenyl)-5-fluoropyrimidin-2-amine]: the IC50 at CDK9/CycT1 [6] was 334 nM; in data set [1] (Homo sapiens, A2780, 96 h), 1000 nM; against CDK2/CycE, 470 nM; in [2] (Homo sapiens, MOLM-13, 72 h), 946 nM; in data set [3] (Homo sapiens, 96 h) it was 1060 nM; at CDK9/CycT1 [5], 15 nM. For the same compound, at CDK9/CycT1 [5], the “Selectivity CDK9/CDK2” value is 30.

The values are drawn from patent US9499492B2, “4-(ortho)-fluorophenyl-5-fluoropyrimidin-2-yl amines containing a sulfoximine group” (BAYER PHARMA AKTIENGESELLSCHAFT, priority 2012, dated 2016).
